The text below walks through data of patent publication US4798811A, “Combination preparation” (BASF Aktiengesellschaft, priority 1986, dated 1989).

Structures are written as SMILES.

In experiment [1] the test system is thrombocyte aggregation. Put plainly: In vitro inhibition of thrombocyte aggregation induced by adrenalin and collagen in thrombocyte-rich plasma. Type of experiment: cell-based, test persons. How it is done:
(§1) The following methods were used:
1. In vitro investigations
(§2) Venous blood was taken from four test persons and rendered unclottable by adding citrate, and thrombocyte-rich plasma was then obtained from this blood by centrifuging under 300 g for 10 minutes at 4° C. The addition of adrenalin (final concentration 5×10^-8 mole/liter) and collagen (final concentration 2×10^-3 g/liter) to the thrombocyte-rich plasma caused aggregation, which was measured as the change in extinction using a Born aggregometer MK 3. The maximum change in extinction per second was used as a measure of aggregation. The percentage inhibition of aggregation was determined by comparing the values before and after administration of the substance.

Experiment [2] deals with thrombocyte aggregation. Put plainly: Ex vivo inhibition of thrombocyte aggregation after oral administration to five test persons. To be noted: four hours after administration. Type of experiment: in vivo. How it is done: as §1, §2
2. Ex vivo investigations
The candidate compounds were filled into stomach-soluble gelatine capsules and administered orally to five test persons. Venous blood was taken before administration of the substances and four hours after administration. This blood was prepared as under 1 and made to aggregate. The percentage inhibition of aggregation was determined by comparing the values before and after administration of the substance.

As to `CC(=O)Oc1ccccc1C(=O)O` [ASA, acetylsalicylic acid], 1 µg/mL produced 0% inhibition in the experiment with thrombocyte aggregation [1] (Conc. 1 mg/l, adrenalin 5×10^-8 mole/liter and collagen 2×10^-3 g/liter). Also, in the experiment with thrombocyte aggregation [1] (dose of 1.0 mg/l), the “aggregation inhibition (in words)” value is reported as “ineffective”. The “Aggregation inhibition (%)” value in the experiment on thrombocyte aggregation [2] (oral Dosage 60 mg) was 0%.

For `COc1ccc(CCN(C)CCCC(C#N)(c2ccc(OC)c(OC)c2)C(C)C)cc1OC` (stereo not drawn) [Verapamil, 1,7-bis-(3,4-dimethoxyphenyl)-3-methylaza-7-cyano-8-methylnonane], in the experiment on thrombocyte aggregation [1] (Conc. 2 mg/l, adrenalin 5×10^-8 mole/liter and collagen 2×10^-3 g/liter), the inhibition at 2 µg/mL is 8.7%. Also, in the experiment on thrombocyte aggregation [1] (Conc. 10 mg/l, adrenalin 5×10^-8 mole/liter and collagen 2×10^-3 g/liter), the inhibition at 10 µg/mL came to 31%. Moreover, the “Aggregation inhibition (%)” value in the experiment on thrombocyte aggregation [2] (oral Dosage 240 mg) was determined as 33%.

In general, inhibition refers to the drop in the measured response relative to a control, in per cent. High values mean a response far below the control, low ones a response near the control.
